The values that follow are results of earlier work, collected in US20240366636A1, “ORAL CANNABINOID PHARMACEUTICAL COMPOSITIONS AND METHODS OF TREATING INFLAMMATORY GASTROINTESTINAL DISORDERS” (Curio IP, LLC, priority 2022, published 2024).

The half-life is how long it takes for the measured level to halve.

The conditions of data set [1]: humans.
The target of another data set is cannabinoid CB2 receptor (Homo sapiens, UniProt P34972).
Data set [2] deals with DNBS-induced intestinal inflammation. The note with it: murine.

cannabinoid CB2 receptor, sequence (P34972 whole entry): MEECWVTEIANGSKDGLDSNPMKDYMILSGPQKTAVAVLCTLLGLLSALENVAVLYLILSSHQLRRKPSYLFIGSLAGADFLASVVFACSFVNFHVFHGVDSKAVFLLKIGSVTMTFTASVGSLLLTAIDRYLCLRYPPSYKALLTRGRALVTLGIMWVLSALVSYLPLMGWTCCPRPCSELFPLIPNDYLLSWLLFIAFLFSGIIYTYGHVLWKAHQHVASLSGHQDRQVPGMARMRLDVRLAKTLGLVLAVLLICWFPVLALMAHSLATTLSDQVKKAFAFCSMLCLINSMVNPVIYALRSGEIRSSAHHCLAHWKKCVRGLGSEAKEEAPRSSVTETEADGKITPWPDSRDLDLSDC

Consider `C=C(C)[C@@H]1CCC(C)=C[C@H]1c1c(O)cc(CCCCC)cc1O` [CBD, cannabidiol], for which, in data set [1], the oral bioavailability entry is listed as “approximately 6%”. In addition, at cannabinoid CB2 receptor, the “affinity for CB2 receptor” value is “low affinity”.

For `CCCCCc1cc(O)c2c(c1)OC(C)(C)[C@@H]1CCC(C)=C[C@@H]21` [THC, (−)-(6aR,10aR)-6,6,9-trimethyl-3-pentyl-6a,7,8,10a-tetrahydro-6H-benzo[c]chromen-1-ol], where the note is “following smoking of the equivalent of 10-15 mg over 5-7 minutes”, the peak plasma levels entry was “around 100 μg/L”. In addition, where the note is “plasma, when cannabis is smoked”, the half-life is 2 h. In addition, the Bioavailability (smoking route) was 2-56%.

Turning to Cannabigerol [CBG], in data set [2], the “DNBS-induced intestinal inflammation and permeability” value is “attenuated”. In data set [2] (DNBS), the “Interleuken-1β (IL-1β) levels” value is listed as “reduced” and the “myeloperoxidase (MPO) activity” value is listed as “reduced”.
